Measurements published in patent US8304206B2, “Mass spectrometry assays for identifying compounds that activate deacetylases” (Sirtris Pharmaceuticals, Inc., priority 2005, dated 2012).

Target: T1, SIRT1 (Homo sapiens, UniProt Q96EB6)
T1 sequence (Q96EB6 1-747): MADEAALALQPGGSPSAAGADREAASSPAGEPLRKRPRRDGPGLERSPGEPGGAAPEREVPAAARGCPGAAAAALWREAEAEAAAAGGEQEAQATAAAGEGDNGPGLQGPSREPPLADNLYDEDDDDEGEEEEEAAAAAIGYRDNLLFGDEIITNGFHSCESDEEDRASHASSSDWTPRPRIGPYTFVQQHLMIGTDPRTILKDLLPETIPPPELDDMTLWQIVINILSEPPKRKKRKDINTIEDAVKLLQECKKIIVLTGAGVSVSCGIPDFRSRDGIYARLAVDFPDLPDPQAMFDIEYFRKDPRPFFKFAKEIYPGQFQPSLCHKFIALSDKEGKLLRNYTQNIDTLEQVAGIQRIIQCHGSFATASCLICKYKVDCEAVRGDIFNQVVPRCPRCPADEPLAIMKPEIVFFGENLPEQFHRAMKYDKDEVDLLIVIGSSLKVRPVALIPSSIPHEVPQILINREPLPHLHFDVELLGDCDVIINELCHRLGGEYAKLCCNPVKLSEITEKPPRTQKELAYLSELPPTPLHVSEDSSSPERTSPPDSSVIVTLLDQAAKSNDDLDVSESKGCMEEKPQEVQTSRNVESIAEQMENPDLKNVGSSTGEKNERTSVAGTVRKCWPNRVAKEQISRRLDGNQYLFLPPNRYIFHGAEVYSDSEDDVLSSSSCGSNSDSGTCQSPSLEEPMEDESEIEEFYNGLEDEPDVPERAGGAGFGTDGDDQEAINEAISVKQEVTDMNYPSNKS
Test: SIRT1 mass spectrometry assay (screening for activation)
Type: biochemical
Settings: for FOLD ACTIVATION MS: activation of SIRT1, mass spectrometry; for EC50: activation of SIRT1, 0.5 μM peptide substrate (SEQ ID NO: 34), 120 μM NAD+, 10 nM SIRT1, 25 min, read-out: ED50 MS ASSAY

| SMILES | FOLD ACTIVATION MS | EC50 [µM] |
| --- | --- | --- |
| CN(C)c1cccc(C(=O)Nc2cccc(-c3nc4ncccc4[nH]3)c2)c1 [compound 183] | A (Fold activation>250%) | – |
| COc1ccc(C(=O)Nc2cccc(-c3nc4ncccc4[nH]3)c2)c(OC)c1 [compound 184] | B (Fold Activation<250%) | < 50 |
| COc1ccc(C(=O)Nc2cccc(-c3nc4cccnc4[nH]3)c2)cc1OC [compound 185] | A (Fold activation>250%) | < 50 |
| COc1cc(C)ccc1C(=O)Nc1ccc(-c2cc3cccnc3o2)cc1 [compound 187] | B (Fold Activation<250%) | – |
| COc1ccc(C(=O)Nc2ccc(-c3cc4cccnc4o3)cc2)c(OC)c1 [compound 190] | B (Fold Activation<250%) | < 50 |
| COc1ccc(C(=O)Nc2cccc(-c3cc4cccnc4o3)c2)c(OC)c1 [compound 191] | B (Fold Activation<250%) | < 50 |
| COc1ccc(C(=O)Nc2cccc(-c3cc4cccnc4o3)c2)cc1OC [compound 192] | B (Fold Activation<250%) | – |
| CN(C)c1cccc(C(=O)Nc2ccc(-c3nc4ncccc4s3)cc2)c1 [compound 196] | B (Fold Activation<250%) | – |
| COc1ccc(C(=O)Nc2ccc(-c3nc4ncccc4s3)cc2)cc1OC [compound 197] | B (Fold Activation<250%) | < 50 |
| COc1ccc(C(=O)Nc2cccc(-c3nc4ncccc4s3)c2)c(OC)c1OC [compound 198] | B (Fold Activation<250%) | – |
| COc1cc(C)ccc1C(=O)Nc1cccc(-c2nc3ncccc3s2)c1 [compound 199] | B (Fold Activation<250%) | < 50 |
| CN(C)c1cccc(C(=O)Nc2cccc(-c3nc4ncccc4s3)c2)c1 [compound 200] | B (Fold Activation<250%) | < 50 |
| COc1ccc(C(=O)Nc2cccc(-c3nc4ncccc4s3)c2)cc1OC [compound 201] | B (Fold Activation<250%) | – |
| COc1ccc(C(=O)Nc2cccc(-c3nc4ncccc4s3)c2)c(OC)c1 [compound 202] | B (Fold Activation<250%) | < 50 |
| COc1ccc(C(=O)Nc2ccccc2-c2cn3ccsc3n2)cc1OC [compound 203] | B (Fold Activation<250%) | < 50 |
| COc1cc(C(=O)Nc2ccccc2-c2cn3ccsc3n2)cc(OC)c1OC [compound 204] | A (Fold activation>250%) | < 50 |
| COc1ccc(C(=O)Nc2ccccc2-c2cn3c(CN(C)C)csc3n2)cc1OC [compound 205] | A (Fold activation>250%) | – |
| COc1cc(C(=O)Nc2ccccc2-c2cn3c(CN(C)C)csc3n2)cc(OC)c1OC [compound 206] | A (Fold activation>250%) | – |
| COc1ccc(C(=O)Nc2ccccc2-c2cn3c(CN4CCNCC4)csc3n2)cc1OC [compound 207] | A (Fold activation>250%) | – |
| COc1cc(C(=O)Nc2ccccc2-c2cn3c(CN4CCNCC4)csc3n2)cc(OC)c1OC [compound 208] | A (Fold activation>250%) | – |
| COc1ccc(C(=O)Nc2ccccc2-c2cn3c(CN4CCOCC4)csc3n2)cc1OC [compound 209] | A (Fold activation>250%) | – |

| SMILES | FOLD ACTIVATION MS | EC50 [µM] |
| --- | --- | --- |
| COc1cc(C(=O)Nc2ccccc2-c2cn3c(CN4CCOCC4)csc3n2)cc(OC)c1OC [compound 210] | B (Fold Activation<250%) | – |
| COc1ccc(C(=O)Nc2cccc(-c3nc4ccccc4[nH]3)c2)c(OC)c1 [compound 211] | B (Fold Activation<250%) | < 50 |
| COc1cccc(C(=O)Nc2cccc(-c3nc4cccnc4s3)c2)c1 [compound 212] | B (Fold Activation<250%) | – |
| COc1ccc(C(=O)Nc2cccc(-c3nc4cccnc4s3)c2)c(OC)c1 [compound 213] | B (Fold Activation<250%) | < 50 |
| COc1cccc(C(=O)Nc2cccc(-c3nc4cccnc4s3)c2)c1OC [compound 214] | B (Fold Activation<250%) | – |
| COc1cc(OC)cc(C(=O)Nc2cccc(-c3nc4cccnc4s3)c2)c1 [compound 215] | B (Fold Activation<250%) | < 50 |
| COc1ccc(C(=O)Nc2cccc(-c3nc4cccnc4s3)c2)cc1 [compound 216] | B (Fold Activation<250%) | < 50 |
| COc1cc(C(=O)Nc2cccc(-c3nc4cccnc4s3)c2)cc(OC)c1OC [compound 217] | A (Fold activation>250%) | < 50 |
| COc1cc(C(=O)Nc2cccc(-c3cn4cccnc4n3)c2)cc(OC)c1OC [compound 218] | A (Fold activation>250%) | < 50 |
| COc1cc(C(=O)Nc2cccc(-c3nc4ncccn4c3C)c2)cc(OC)c1OC [compound 219] | A (Fold activation>250%) | – |
| O=C(Nc1cccc(-c2nc3ccncc3s2)c1)c1ccco1 [compound 221] | B (Fold Activation<250%) | – |
| O=C(Nc1cccc(-c2nc3ccncc3s2)c1)c1cccnc1Cl [compound 222] | B (Fold Activation<250%) | – |
| O=C(Nc1cccc(-c2nc3ccncc3s2)c1)c1cccs1 [compound 223] | B (Fold Activation<250%) | < 50 |
| Cc1cc(C(=O)Nc2cccc(-c3nc4ccncc4s3)c2)n(C(C)(C)C)n1 [compound 228] | A (Fold activation>250%) | – |
| O=C(Nc1cccc(-c2nc3ccncc3s2)c1)c1cnn(-c2ccccc2)c1C(F)(F)F [compound 238] | B (Fold Activation<250%) | < 50 |
| O=S(=O)(Nc1cccc(-c2nc3ccncc3s2)c1)c1ccc(OC(F)(F)F)cc1 [compound 239] | B (Fold Activation<250%) | < 50 |
| O=C(Nc1cccc(-c2nc3ccncc3s2)c1)c1ccc(-c2ccccc2)o1 [compound 241] | B (Fold Activation<250%) | < 50 |
| O=C(Nc1cccc(-c2nc3ccncc3s2)c1)c1ccccc1Oc1ccccc1 [compound 245] | B (Fold Activation<250%) | < 50 |
| Cn1nc(C(C)(C)C)cc1C(=O)Nc1cccc(-c2nc3ccncc3s2)c1 [compound 246] | B (Fold Activation<250%) | < 50 |
| O=C(Nc1cccc(-c2nc3ccncc3s2)c1)c1cc(C(F)(F)F)ccc1C(F)(F)F [compound 248] | B (Fold Activation<250%) | – |
